Laboratory results reported in article PMC7269367 (Chemical research in toxicology, 2019).

Key:
[1] = Metabolic stability of BACs in HLM; type: in vitro ADME, human; conditions: BAC 2 μM incubated separately, HLM 1 mg/mL, NADPH-dependent consumption
[2] = target: recombinant CYP2D6 (Homo sapiens, UniProt P10635); assay: BAC consumption by human recombinant CYP2D6; type: in vitro ADME; conditions: 2 μM substrate, 50 nM P450, 30-minute incubation, NADPH
[3] = target: recombinant CYP3A4 (Homo sapiens, UniProt P08684); assay: BAC consumption by human recombinant CYP3A4; type: in vitro ADME; conditions: 2 μM substrate, 50 nM P450, 30-minute incubation, NADPH
[4] = target: T1, recombinant CYP4F12 (Homo sapiens, UniProt Q9HCS2); assay: BAC consumption by human recombinant CYP4F12; type: in vitro ADME; conditions: for substrate consumed by recombinant CYP4F12: 50 nM P450, 30-minute incubation, NADPH
T1 sequence (Q9HCS2 1-524): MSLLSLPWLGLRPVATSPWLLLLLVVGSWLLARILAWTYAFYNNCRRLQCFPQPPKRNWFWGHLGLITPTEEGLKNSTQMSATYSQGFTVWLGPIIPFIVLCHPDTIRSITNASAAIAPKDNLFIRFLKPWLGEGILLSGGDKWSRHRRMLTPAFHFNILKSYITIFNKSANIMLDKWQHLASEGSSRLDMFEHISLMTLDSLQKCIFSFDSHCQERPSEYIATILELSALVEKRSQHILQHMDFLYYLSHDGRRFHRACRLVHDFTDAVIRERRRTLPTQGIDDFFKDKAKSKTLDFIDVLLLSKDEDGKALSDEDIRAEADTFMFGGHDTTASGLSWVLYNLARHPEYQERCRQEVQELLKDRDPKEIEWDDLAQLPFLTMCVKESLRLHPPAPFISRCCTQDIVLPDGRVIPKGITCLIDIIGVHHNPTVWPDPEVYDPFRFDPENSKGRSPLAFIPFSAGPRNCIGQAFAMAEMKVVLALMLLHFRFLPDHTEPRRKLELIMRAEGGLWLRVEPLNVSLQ

[5] = Kinetic characterization of C10-BAC hydroxylation in HLM; type: in vitro ADME, human; conditions: HLM 0.04 mg/mL, NADPH, 0.1 to 128 μM C10-BAC, initial rates
[6] = tested on: Dhcr7 / cholesterol biosynthesis in Neuro2a cells; assay: Cellular sterol levels in Neuro2a cells after exposure; type: cell-based, Mouse; conditions: 100 nM; for cellular desmosterol and cholesterol: 72 hour exposure, serum-free media, relative to Control; for cellular accumulation of 7-DHC, less than the accumulation caused by C10-BAC: 72 hours
[7] = tested on: 3β-hydroxysterol-Δ^7-reductase (DHCR7); conditions: at nM concentrations; cited from earlier work
[8] = Time-courses of C10-BAC depletion and metabolite formation in HLM; conditions: HLM 0.2 mg/mL
[9] = target: T2, recombinant CYP4F2 (Homo sapiens, UniProt P78329); assay: BAC consumption by human recombinant CYP4F2; type: in vitro ADME; conditions: for effective inhibitor of recombinant CYP4F2 (C16-BAC consumption): inhibitor 1 μM, C16-BAC 2 μM, 50 nM P450, 20 minutes
T2 sequence (P78329 5-520): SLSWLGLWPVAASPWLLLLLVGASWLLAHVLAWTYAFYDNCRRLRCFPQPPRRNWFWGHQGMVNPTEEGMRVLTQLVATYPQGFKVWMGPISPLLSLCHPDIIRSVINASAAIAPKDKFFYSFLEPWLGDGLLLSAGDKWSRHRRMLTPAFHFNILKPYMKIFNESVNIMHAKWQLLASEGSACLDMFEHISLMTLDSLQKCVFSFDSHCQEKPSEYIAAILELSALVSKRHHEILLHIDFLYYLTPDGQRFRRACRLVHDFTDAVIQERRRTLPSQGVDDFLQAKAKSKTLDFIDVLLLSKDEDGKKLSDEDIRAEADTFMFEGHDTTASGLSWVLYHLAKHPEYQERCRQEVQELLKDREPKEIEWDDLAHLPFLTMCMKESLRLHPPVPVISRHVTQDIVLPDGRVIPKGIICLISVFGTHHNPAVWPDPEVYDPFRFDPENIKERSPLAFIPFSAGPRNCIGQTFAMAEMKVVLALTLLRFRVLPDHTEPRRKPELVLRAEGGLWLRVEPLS

[10] = target: T3, recombinant CYP2A6 (Homo sapiens, UniProt P11509); assay: BAC consumption by human recombinant CYP2A6; type: in vitro ADME; conditions: 2 μM substrate, 50 nM P450, 30-minute incubation, NADPH
T3 sequence (P11509 1-494): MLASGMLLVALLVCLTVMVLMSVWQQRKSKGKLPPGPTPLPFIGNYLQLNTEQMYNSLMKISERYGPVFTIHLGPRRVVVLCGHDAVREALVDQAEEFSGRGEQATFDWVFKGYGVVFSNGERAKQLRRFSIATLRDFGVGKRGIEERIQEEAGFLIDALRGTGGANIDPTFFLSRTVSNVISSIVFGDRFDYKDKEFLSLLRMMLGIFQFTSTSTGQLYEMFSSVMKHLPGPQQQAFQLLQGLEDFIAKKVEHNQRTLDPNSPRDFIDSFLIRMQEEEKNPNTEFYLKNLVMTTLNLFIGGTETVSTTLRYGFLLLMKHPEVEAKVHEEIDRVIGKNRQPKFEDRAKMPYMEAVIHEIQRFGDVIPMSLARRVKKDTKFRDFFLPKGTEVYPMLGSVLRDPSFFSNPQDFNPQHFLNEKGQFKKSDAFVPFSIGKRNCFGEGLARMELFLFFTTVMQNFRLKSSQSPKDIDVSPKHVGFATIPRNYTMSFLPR

Sequence of recombinant CYP2D6 (P10635 whole entry): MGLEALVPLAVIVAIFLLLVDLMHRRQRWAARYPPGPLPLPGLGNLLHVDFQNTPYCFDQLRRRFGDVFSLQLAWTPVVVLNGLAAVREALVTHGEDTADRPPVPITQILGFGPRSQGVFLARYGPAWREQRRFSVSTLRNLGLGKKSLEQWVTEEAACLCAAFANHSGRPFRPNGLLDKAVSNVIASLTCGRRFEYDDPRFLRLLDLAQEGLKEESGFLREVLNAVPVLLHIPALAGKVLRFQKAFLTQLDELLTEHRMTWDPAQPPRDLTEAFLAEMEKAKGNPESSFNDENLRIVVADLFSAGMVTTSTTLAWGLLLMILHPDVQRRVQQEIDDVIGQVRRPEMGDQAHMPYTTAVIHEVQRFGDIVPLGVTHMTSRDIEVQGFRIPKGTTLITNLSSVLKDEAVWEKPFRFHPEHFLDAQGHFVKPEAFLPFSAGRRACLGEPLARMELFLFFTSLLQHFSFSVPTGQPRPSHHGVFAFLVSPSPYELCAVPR
Sequence of recombinant CYP3A4 (P08684 whole entry): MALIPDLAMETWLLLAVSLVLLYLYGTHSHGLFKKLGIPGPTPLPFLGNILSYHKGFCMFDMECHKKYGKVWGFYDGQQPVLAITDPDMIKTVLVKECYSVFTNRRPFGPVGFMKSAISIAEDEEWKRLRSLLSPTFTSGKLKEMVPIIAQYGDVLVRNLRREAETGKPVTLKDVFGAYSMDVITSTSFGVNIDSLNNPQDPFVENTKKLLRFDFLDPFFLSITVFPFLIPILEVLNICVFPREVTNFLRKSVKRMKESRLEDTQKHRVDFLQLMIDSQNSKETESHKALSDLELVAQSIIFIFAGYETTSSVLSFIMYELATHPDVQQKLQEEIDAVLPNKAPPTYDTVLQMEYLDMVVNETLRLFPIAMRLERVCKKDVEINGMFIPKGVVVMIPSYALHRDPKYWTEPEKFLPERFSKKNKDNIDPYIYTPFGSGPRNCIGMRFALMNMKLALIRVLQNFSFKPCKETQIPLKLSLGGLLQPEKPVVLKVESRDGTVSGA

## CCCCCCCCCC[N+](C)(C)Cc1ccccc1.[Cl-] [C10-BAC]
[1]
  apparent half-life in HLM: approximately 1 minutes
[2]
  substrate consumed by recombinant CYP2D6: essentially all
[3]
  substrate consumed by recombinant CYP3A4: 15%
[4]; 2 μM substrate
  substrate consumed by recombinant CYP4F12: essentially all
[5]
  Vmax of (ω−1)-hydroxylation: 126 pmol/min/mg
  Vmax of ω-hydroxylation: 380 pmol/min/mg
[5]; read-out: Km of (ω−1)-hydroxylation
  Km: 0.13 µM
[6]
  cellular desmosterol and cholesterol: significant decreased level
[7]
  inhibition of DHCR7 in the cholesterol biosynthesis pathway: inhibit
[8]; 680 nM initial substrate, NADPH, no inhibitor
  C10-BAC concentration remaining at the 4-minute time point: 341 ± 7 nM

## CCCCc1ccc(N=CNO)c(C)c1 [HET0016]
[9]
  effective inhibitor of recombinant CYP4F2 (C16-BAC consumption): essentially complete inhibition
[8]; inhibitor 1 μM, C10-BAC 680 nM
  effect on (ω−1)-ketone formation from C10-BAC in HLM: suppressing
  effect on C10-BAC (ω−1)-hydroxylation / oxidation at the (ω−1)-position in HLM: promoted
  effect on C10-BAC ω-hydroxylation (ω-hydroxy metabolite formation) in HLM: nearly complete inhibition
  effect on ω-carboxylic acid formation from C10-BAC in HLM: nearly complete inhibition

## C=C[C@H]1C[N@@]2CC[C@H]1C[C@@H]2[C@@H](O)c1ccnc2ccc(OC)cc12 [quinidine]
[4]; inhibitor 1 μM alone, C16-BAC 2 μM, 50 nM P450, 20 minutes
  inhibition of C16-BAC consumption by recombinant CYP4F12: did not inhibit
[9]
  effective inhibitor of recombinant CYP4F2 (C16-BAC consumption): not
[8]; inhibitor 1 μM, C10-BAC 680 nM
  effect on C10-BAC (ω−1)-hydroxylation / oxidation at the (ω−1)-position in HLM: primarily inhibitory
  effect on C10-BAC ω-hydroxylation (ω-hydroxy metabolite formation) in HLM: did not inhibit
  effect on ω-carboxylic acid formation from C10-BAC in HLM: partial suppression

## CCCCCCCCCCCCCCCC[N+](C)(C)Cc1ccccc1.[Cl-] [C16-BAC]
[1]
  apparent half-life in HLM: ~15 min
[2]
  substrate consumed by recombinant CYP2D6: 77%
[4]; 2 μM substrate
  substrate consumed by recombinant CYP4F12: 88%
[4]; 2 μM substrate, 50 nM P450, 20 minute incubation, HET0016 1 μM, mean ± SD, n = 3
  C16-BAC percent remaining with recombinant CYP4F12, HET0016 alone: 49% ± 6%
[4]; 2 μM substrate, 50 nM P450, 20 minute incubation, no inhibitor, mean ± SD, n = 3
  C16-BAC percent remaining with recombinant CYP4F12, no inhibitor: 26% ± 4%
[10]
  substrate consumed by recombinant CYP2A6: 5%
[9]; 2 μM substrate, 50 nM P450, 30-minute incubation, NADPH
  substrate consumed by recombinant CYP4F2: 45%

## CC(O)CCCCCCCC[N+](C)(C)Cc1ccccc1.[Cl-] (stereo not shown) [(ω−1)-hydroxy-C10-BAC]
[6]
  cellular accumulation of 7-DHC, less than the accumulation caused by C10-BAC: over 2 orders of magnitude

## Cl.Cl.Clc1ccccc1CNCC1CCC(CNCc2ccccc2Cl)CC1 (stereo not shown) [AY9944, reference compound]
[6]
  cellular desmosterol and cholesterol: significant decreased level

## C[N+](C)(CCCCCCCCCCO)Cc1ccccc1.[Cl-] [ω-hydroxy-C10-BAC]
[6]
  cellular accumulation of 7-DHC, less than the accumulation caused by C10-BAC: over 2 orders of magnitude

## CCCCCCCCCCCCCC[N+](C)(C)Cc1ccccc1.[Cl-] [C14-BAC]
[1]
  apparent half-life in HLM: ~6 min
